Residues, ends and D or L forms follow the SMILES beside them.
Biological target: T1, Mad2^∆β7/β8 (Homo sapiens, UniProt Q13257)
T1 construct: a Mad2 variant with a deleted β7/β8 hairpin (Mad2^∆β7/β8: residues 1–165); His6-DoubleStrep-TEV (N); made in house
Assay: NMR titration (CSP) of Cdc20^MIM-123-152 into Mad2^∆β7/β8
Assay type: binding
Conditions: 25°C
Experimental: FIGURE 3 Mad2 conversion rates with different Cdc20^MIM peptides. (a) Schematic of human Cdc20. Box1: Box1 motif; C1: C‐box motif; K1: KEN box motif; MIM: Mad2‐interacting motif, residues 123–137; WD40: WD40 domain, residues 182–480; IR: IR tail. (b) Mad2 conversion in the presence of different Cdc20^MIM peptides. Mad2 conversion was traced at 25°C and the changes in the first 30 min are shown. A black tick indicates where conversion is considered complete. NMR data for O‐Mad2^R133A with Cdc20^MIM‐111‐138 shown for comparison are from Fischer et al. ([2022]). (c) The Cdc20^MIM‐138‐152‐binding site was identified by comparing the spectra of C‐Mad2:Cdc20^MIM‐123‐137 with C‐Mad2:Cdc20^MIM‐123‐152 (boxed in b) and analyzing their CSPs (Figure S8e,f). The Cdc20^MIM‐138‐152‐binding site (blue) is mapped onto the structure of C‐Mad2:Cdc20 from the cryo‐EM structure of the APC/C:MCC complex (PDB 6TLJ) (Alfieri et al., [2016], Alfieri et al., [2020]). The O‐Mad2 structural model is superimposed onto the C‐Mad2 structure for comparison. Cdc20 residues 138–152 are in yellow and residues 126–138 are in green. The β7/β8 hairpin in O‐Mad2 (red) blocks both the binding sites for Cdc20 residues 126–138 and residues 138–152. (d) As in c except the β7/β8 hairpin in O‐Mad2 is removed to expose the Cdc20 binding sites. […] (f) Cdc20^MIM‐123‐152 was titrated into Mad2^∆β7/β8 and its binding was analyzed by NMR. […]

Compound: CC[C@H](C)[C@H](NC(=O)[C@H](CCCCN)NC(=O)[C@H](C)NC(=O)[C@H](CCC(=O)O)NC(=O)[C@H](CCC(=O)O)NC(=O)[C@@H](NC(=O)[C@H](CC(=O)O)NC(=O)[C@@H](N)Cc1ccccc1)C(C)C)C(=O)N[C@@H](CC(C)C)C(=O)N[C@@H](CCCNC(=N)N)C(=O)N[C@@H](CC(C)C)C(=O)N[C@@H](CO)C(=O)NCC(=O)N[C@@H](CCCCN)C(=O)N1CCC[C@H]1C(=O)N[C@@H](CCC(N)=O)C(=O)N[C@@H](CC(N)=O)C(=O)N[C@@H](C)C(=O)N1CCC[C@H]1C(=O)N[C@@H](CCC(=O)O)C(=O)NCC(=O)N[C@@H](Cc1ccc(O)cc1)C(=O)N[C@@H](CCC(N)=O)C(=O)N[C@@H](CC(N)=O)C(=O)N[C@@H](CCCNC(=N)N)C(=O)N[C@@H](CC(C)C)C(=O)N[C@@H](CCCCN)C(=O)N[C@H](C(=O)N[C@@H](CC(C)C)C(=O)N[C@@H](Cc1ccc(O)cc1)C(=O)O)C(C)C [Cdc20^MIM‐123‐152] (H-FDVEEAKILRLSGKPQNAPEGYQNRLKVLY-OH; N-terminus and C-terminus assumed)
- interaction with Mad2^∆β7/β8, in words (NMR CSPs on addition of peptide): weak interaction
- Kd (NMR titration, fit of resonance with largest CSP vs ligand concentration, 20 mM HEPES pH 7.0, 100 mM NaCl, 1 mM TCEP, 5% D2O, read-out: KD (estimated)): > 700 µM

— PMC11947619, “Molecular mechanism of Mad2 conformational conversion promoted by the Mad2‐interaction motif of Cdc20” (Protein Science : A Publication of the Protein Society, 2025)
